In patent US9763942B2, “Serine/threonine kinase inhibitors” (Array BioPharma Inc., priority 2013, dated 2017):
Read-outs that look alike come from different tables or passages of the source.

Legend:
[1] = test system: PMA-stimulated P90RSK(Ser380) phosphorylation in HepG2 cells; assay: Cellular P90RSK(Ser380) Phosphorylation Assay; type: cell-based; settings: Homo sapiens, 1.5 hours compound incubation, PMA 100 ng/mL 30 minutes, pP90RSK(Ser380) signal normalized to GAPDH, single assay or mean of multiple assays, read-out: Biological Example 2 IC50
Description: Inhibition of PMA-stimulated P90RSK(Ser380) phosphorylation was determined by the following in vitro cellular mechanistic assay, which comprises incubating cells with a compound for 1.5 hours and quantifying fluorescent pP90RSK(Ser380) signal on fixed cells and normalizing to GAPDH signal.
HepG2 cells were obtained from ATCC and grown in DMEM supplemented with 10% fetal bovine serum. Cells were plated in 96-well plates at 35,000 cells/well and allowed to attach overnight at 37° C./5% CO2. Diluted compounds were then added at a final concentration of 0.5% DMSO. After 1.5 hours compound incubation, cells were stimulated with the addition of phorbol 12-myristate 13-acetate (“PMA”) at a final concentration of 100 ng/mL; the PMA stimulation was a 30-minute incubation at 37° C./5% CO2. After the 30-minute PMA stimulation, cells were washed with phosphate buffered saline (“PBS”) and fixed in 3.7% formaldehyde in PBS at room temperature for 15-20 minutes. This was followed by another wash in PBS and then permeabilization in 100% MeOH at room temperature for 10-15 minutes. Following the permeabilization incubation, cells were washed in PBS/0.05% Tween-20, followed by a block in Odyssey blocking buffer (LI-COR Biosciences) for at least 1 hour. Antibodies to phosphorylated P90RSK(Ser380) (Cell Signaling #9335, rabbit monoclonal) and GAPDH (Fitzgerald 10R-G109a, mouse monoclonal) were added to the cells and incubated overnight at 4° C. pP90RSK(Ser380) antibody was used at a 1:250 dilution; GAPDH was used at a 1:10,000 dilution. After washing with PBS/0.05% Tween-20, the cells were incubated with fluorescently-labeled secondary antibodies (Anti-rabbit-Alexa Flour680, Invitrogen Cat#A21109; Anti-mouse-IRDye800CW, Rockland Inc. Cat#610-131-121) for 1 hour. Both secondary antibodies were used at a 1:1000 dilution. Cells were then washed and analyzed for fluorescence at both wavelengths using the Odyssey Infrared Imaging System (LI-COR Biosciences). Phosphorylated P90RSK(Ser380) signal was normalized to GAPDH signal.

[2] = molecular target: T1, human ERK-2 (Mitogen Activated Kinase 1) (Homo sapiens, UniProt P28482); assay: ERK-2 Enzymatic Assay; type: biochemical
T1 construct: n-terminal 6-His fusion protein in E. coli and corresponding to aa 8-360; 6-His (N); made in house; host or cells: E. coli
From the text: Table 1 contains representative data for Examples disclosed herein.

[3] = 5 nM ERK-2 enzyme, 25 μM ATP (observed Km), Omnia peptide S/T17, single assay or mean of multiple assays, read-out: Biological Example 1 IC50
[4] = ERK-2 enzymatic assay, read-out: IC50

T1 sequence (P28482 8-360): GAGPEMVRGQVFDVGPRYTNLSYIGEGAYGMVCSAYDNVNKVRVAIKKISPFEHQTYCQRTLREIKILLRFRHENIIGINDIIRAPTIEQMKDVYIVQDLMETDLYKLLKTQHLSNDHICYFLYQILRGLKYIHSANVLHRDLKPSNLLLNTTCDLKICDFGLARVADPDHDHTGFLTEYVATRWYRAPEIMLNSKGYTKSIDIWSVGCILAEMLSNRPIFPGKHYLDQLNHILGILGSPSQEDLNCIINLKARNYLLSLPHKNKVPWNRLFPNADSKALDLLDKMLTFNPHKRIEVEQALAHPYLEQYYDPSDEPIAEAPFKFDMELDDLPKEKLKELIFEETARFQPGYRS

## Cn1nccc1Nc1nccc(-c2ccc3c(c2)nnn3Cc2cccc(F)c2F)n1 [Example 1, 4-(1-(2,3-difluorobenzyl)-1H-benzo[1,2,3]triazol-5-yl)-N-(1-methyl-1H-pyrazol-5-yl)pyrimidin-2-amine]
[1]
  IC50: 22.7 nM
[2]; [3]
  IC50: 0.9 nM
[2]; [4]
  IC50: < 100 nM

## Cn1nccc1Nc1nccc(-c2ccc3c(c2)nnn3CCn2cc(Cl)cn2)n1 [Example 4, 4-(1-(2-(4-chloro-1H-pyrazol-1-yl)ethyl)-1H-benzo[d][1,2,3]triazol-5-yl)-N-(1-methyl-1H-pyrazol-5-yl)pyrimidin-2-amine]
[1]
  IC50: 3.2 nM
[2]; [3]
  IC50: 1.9 nM
[2]; [4]
  IC50: < 100 nM

## COc1ccc(Cn2nnc3cc(-c4ccnc(Nc5ccnn5C)n4)cnc32)cc1F [Example 5, 4-(3-(3-fluoro-4-methoxybenzyl)-3H-[1,2,3]triazolo[4,5-b]pyridin-6-yl)-N-(1-methyl-1H-pyrazol-5-yl)pyrimidin-2-amine]
[1]
  IC50: 16.8 nM
[2]; [3]
  IC50: 2.5 nM
[2]; [4]
  IC50: < 100 nM

## COc1ccc(Cn2nnc3cc(-c4ccnc(N[C@@H]5CCOC[C@H]5F)n4)ccc32)cc1F [Example 6, 4-(1-(3-fluoro-4-methoxybenzyl)-1H-benzoyl[d][1,2,3]triazol-5-yl)-N-((3S,4R)-3-fluorotetrahydro-2H-pyran-4-yl)pyrimidin-2-amine]
[1]
  IC50: 58.2 nM
[2]; [3]
  IC50: 2.6 nM
[2]; [4]
  IC50: < 100 nM

## COc1ccc(Cn2nnc3cc(-c4ccnc(Nc5cn(C)nc5C)n4)ccc32)cc1F [Example 8, N-(1,3-dimethyl-1H-pyrazol-4-yl)-4-(1-(3-fluoro-4-methoxybenzyl)-1H-benzo[d][1,2,3]triazol-5-yl)pyrimidin-2-amine]
[1]
  IC50: 56.8 nM
[2]; [3]
  IC50: 2.9 nM
[2]; [4]
  IC50: < 100 nM

## Cn1nccc1Nc1nccc(-c2ccc3c(c2)nnn3CC2CCC(F)(F)CC2)n1 [Example 33, 4-(1-((4,4-difluorocyclohexyl)methyl)-1H-benzo[d][1,2,3]triazol-5-yl)-N-(1-methyl-1H-pyrazol-5-yl)pyrimidin-2-amine]
[1]
  IC50: 63.3 nM
[2]; [3]
  IC50: 4 nM
[2]; [4]
  IC50: < 100 nM

## CCOCCCn1nnc2cc(-c3ccnc(Nc4ccnn4C)n3)ccc21 [Example 43, 4-(1-(3-ethoxypropyl)-1H-benzo[d][1,2,3]triazol-5-yl)-N-(1-methyl-1H-pyrazol-5-yl)pyrimidin-2-amine]
[1]
  IC50: 68.5 nM
[2]; [3]
  IC50: 5.7 nM
[2]; [4]
  IC50: < 100 nM

## Cn1nccc1Nc1cc(-c2ccc3c(c2)nnn3Cc2ccc(Cl)cc2)ccn1 [Example 55, 4-(1-(4-chlorobenzyl)-1H-benzo[d][1,2,3]triazol-5-yl)-N-(1-methyl-1H-pyrazol-5-yl)pyridin-2-amine]
[1]
  IC50: 184 nM
[2]; [3]
  IC50: 5.1 nM
[2]; [4]
  IC50: < 100 nM

## Cc1ncccc1Cn1nnc2cc(-c3ccnc(Nc4ccnn4C)c3)ccc21 [Example 56, N-(1-methyl-1H-pyrazol-5-yl)-4-(1-((2-methylpyridin-3-yl)methyl)-1H-benzo[d][1,2,3]triazol-5-yl)pyridin-2-amine]
[1]
  IC50: 781 nM
[2]; [3]
  IC50: 7.8 nM
[2]; [4]
  IC50: < 100 nM

## Cc1cccc(Cn2nnc3cc(-c4ccnc(Nc5ccnn5C)n4)ccc32)n1 [Example 58, N-(1-methyl-1H-pyrazol-5-yl)-4-(1-((6-methylpyridin-2-yl)methyl)-1H-benzo[d][1,2,3]triazol-5-yl)pyrimidin-2-amine]
[1]
  IC50: 437 nM
[2]; [3]
  IC50: 11.4 nM
[2]; [4]
  IC50: < 100 nM

## Cn1nccc1Nc1nccc(-c2ccc3c(c2)nnn3CC2CNC2)n1 [Example 62, 4-(1-(azetidin-3-ylmethyl)-1H-benzo[d][1,2,3]triazol-5-yl)-N-(1-methyl-1H-pyrazol-5-yl)pyrimidin-2-amine]
[1]
  IC50: 1400 nM
[2]; [3]
  IC50: 53.2 nM
[2]; [4]
  IC50: < 100 nM

## COc1ccc([C@@H](c2cnn(C)c2)n2nnc3cc(-c4ccnc(Nc5ccnn5C)n4)ccc32)cc1F [Example 70]
[1]
  IC50: 79.1 nM
[2]; [3]
  IC50: 1.7 nM
[2]; [4]
  IC50: < 100 nM

## COc1ccc([C@@H](c2nccn2C)n2nnc3cc(-c4ccnc(Nc5ccnn5C)n4)ccc32)cc1F [Example 72, (S)-4-(1-((3-fluoro-4-methoxyphenyl)(1-methyl-1H-imidazol-2-yl)methyl)-1H-benzo[d][1,2,3]triazol-5-yl)-N-(1-methyl-1H-pyrazol-5-yl)pyrimidin-2-amine]
[1]
  IC50: 3.7 nM
[2]; [3]
  IC50: 2 nM
[2]; [4]
  IC50: < 100 nM

## CN1CC(n2nnc3cc(-c4ccnc(Nc5ccnn5C)n4)ccc32)C1 [Example 86, N-(1-methyl-1H-pyrazol-5-yl)-4-(1-(1-methylazetidin-3-yl)-1H-benzo[d][1,2,3]triazol-5-yl)pyrimidin-2-amine]
[1]
  IC50: 21.8 nM
[2]; [3]
  IC50: 2.8 nM
[2]; [4]
  IC50: < 100 nM

## Cn1nccc1Nc1nccc(-c2ccc3c(c2)nnn3CCn2cccn2)n1 [Example 104, 4-(1-(2-(1H-pyrazol-1-yl)ethyl)-1H-benzo[d][1,2,3]triazol-5-yl)-N-(1-methyl-1H-pyrazol-5-yl)pyrimidin-2-amine]
[1]
  IC50: 19.6 nM
[2]; [3]
  IC50: 2.2 nM
[2]; [4]
  IC50: < 100 nM

## COc1ncccc1Cn1nnc2cc(-c3ccnc(Nc4ccnn4C)n3)cnc21 [Example 126, 4-(3-((2-methoxypyridin-3-yl)methyl)-3H-[1,2,3]triazolo[4,5-b]pyridin-6-yl)-N-(1-methyl-1H-pyrazol-5-yl)pyrimidin-2-amine]
[2]; [4]
  IC50: < 100 nM
